Results from ChEMBL document CHEMBL3045262, “Synthesis and Insecticidal Activity of Novel 1-Benzoyl-3-phenylurea Derivatives with Polyfluoroethylsulfenyl, -sulfonyl, and-sulfinyl Substituents” (1992).

How the values were obtained:
Format in all cases: functional
Adoxophyes orana [1] = assay: Larvicidal activity against second-instar larvae of Adoxophyes orana infested soybean seedling assessed as mortality at 20 ppm measured after 7 days; details: 168 h
Plutella xylostella [2] = assay: Larvicidal activity against second-instar larvae of Plutella xylostella (diamondback moth) infested raddish seedling assessed as mortality at 3.3 ppm sprayed 2 hr prior to infestation measured after 4 days
Spodoptera litura [3] = assay: Larvicidal activity against third-instar larvae of Spodoptera litura infested in soybean seedling assessed as mortality at 2 ppm sprayed 1 day prior to infestation measured after 5 days
Spodoptera litura [4] = assay: Larvicidal activity against third-instar larvae of Spodoptera litura infested in soybean seedling assessed as mortality at 2 ppm sprayed 6 days prior to infestation measured after 5 days
Adoxophyes orana [5] = assay: Larvicidal activity against second-instar larvae of Adoxophyes orana infested soybean seedling assessed as mortality at 5 ppm measured after 7 days; details: 168 h
Plutella xylostella [6] = assay: Larvicidal activity against second-instar larvae of Plutella xylostella (diamondback moth) infested raddish seedling assessed as mortality at 50 ppm sprayed 2 hr prior to infestation measured after 4 days

Row | SMILES | mortality at 20 ppm (Adoxophyes orana [1]) [%] | mortality at 3.3 ppm (Plutella xylostella [2]) [%] | mortality at 2 ppm (Spodoptera litura [3]) [%] | mortality at 2 ppm (Spodoptera litura [4]) [%] | mortality at 5 ppm (Adoxophyes orana [5]) [%] | mortality at 50 ppm (Plutella xylostella [6]) [%]
1 | O=C(NC(=O)c1c(F)cccc1F)Nc1ccc(SC(F)(F)C(F)F)c(Cl)c1 | 65 | 100 | 100 | 100 |  | 
2 | O=C(NC(=O)c1c(F)cccc1F)Nc1ccc(S(=O)(=O)C(F)(F)C(F)F)cc1Cl |  | 95 | 100 | 100 | 100 | 
3 | O=C(NC(=O)c1c(F)cccc1F)Nc1ccc(SC(F)(F)C(F)F)cc1Br |  | 100 | 100 | 100 | 100 | 
4 | O=C(NC(=O)c1c(F)cccc1F)Nc1ccc(Cl)cc1 [DIFLUBENZURON] | 20 |  | 20 | 15 |  | 20
5 | Cc1c(NC(=O)NC(=O)c2c(F)cccc2F)ccc(SC(F)(F)C(F)Cl)c1C (stereo not drawn) |  | 100 | 100 | 100 | 100 | 
6 | Cc1cc([S+]([O-])C(F)(F)C(F)F)c(C)cc1NC(=O)NC(=O)c1c(F)cccc1F (stereo not drawn) |  | 100 | 100 | 100 | 100 | 
7 | O=C(NC(=O)c1c(F)cccc1F)Nc1ccc([S+]([O-])C(F)(F)C(F)F)c(Cl)c1Cl (stereo not drawn) |  | 100 | 100 | 100 | 85 | 
